In ChEMBL document CHEMBL4602626, “Structure activity relationship, 6-modified purine riboside analogues to activate hSTING, stimulator of interferon genes” (Bioorg Med Chem Lett, 2020):
The source made the active and inactive calls. No cut-off for these calls is given here.

target: Stimulator of interferon genes protein (Homo sapiens) (UniProt Q86WV6); test: Activation of human STING expressed in monocytes co-expressing IFN assessed as alkaline phosphatase secretion by SEAP reporter gene assay; assay type: cell-based
Sequence (Q86WV6 whole entry): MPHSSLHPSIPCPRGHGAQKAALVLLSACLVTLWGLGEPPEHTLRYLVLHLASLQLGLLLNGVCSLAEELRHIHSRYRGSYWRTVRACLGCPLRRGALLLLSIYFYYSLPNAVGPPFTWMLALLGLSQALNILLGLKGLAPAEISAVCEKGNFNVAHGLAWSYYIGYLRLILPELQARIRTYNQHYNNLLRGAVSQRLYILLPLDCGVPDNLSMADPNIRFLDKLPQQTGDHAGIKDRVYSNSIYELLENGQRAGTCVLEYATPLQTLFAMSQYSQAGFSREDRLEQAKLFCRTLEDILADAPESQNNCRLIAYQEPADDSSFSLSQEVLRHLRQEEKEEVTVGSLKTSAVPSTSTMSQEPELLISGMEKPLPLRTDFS

| Activity | Structure (SMILES) |
| --- | --- |
| Active | OC[C@H]1O[C@@H](n2cnc3c(OCC(F)F)ncnc32)[C@H](O)[C@@H]1O |
| inactive | CC(C)Oc1ncnc2c1ncn2[C@@H]1O[C@H](CO)[C@@H](O)[C@H]1O |
| Active | C=CCNc1ncnc2c1ncn2[C@@H]1O[C@H](CO)[C@@H](O)[C@H]1O |
| Active | CCCOc1ncnc2c1ncn2[C@@H]1O[C@H](CO)[C@@H](O)[C@H]1O |
| Active | CN(C)/C=N/c1ncnc2c1ncn2[C@@H]1O[C@H](CO)[C@@H](O)[C@H]1O |
| Active | OC[C@H]1O[C@@H](n2cnc3c(NCc4ccccc4)ncnc32)[C@H](O)[C@@H]1O |
| Active | CN(C)CCNc1ncnc2c1ncn2[C@@H]1O[C@H](CO)[C@@H](O)[C@H]1O |
| Active | CCOc1ncnc2c1ncn2[C@@H]1O[C@H](CO)[C@@H](O)[C@H]1O |
| Active | COCCNc1ncnc2c1ncn2[C@@H]1O[C@H](CO)[C@@H](O)[C@H]1O |
| Active | CCNc1ncnc2c1ncn2[C@@H]1O[C@H](CO)[C@@H](O)[C@H]1O |
| Active | CC(C)CNc1ncnc2c1ncn2[C@@H]1O[C@H](CO)[C@@H](O)[C@H]1O |

Second part, the compound before the results:

| Structure (SMILES) | Activity |
| --- | --- |
| CN(C)/C=N/c1ccn([C@@H]2O[C@H](CO)[C@@H](O)[C@H]2O)c(=O)n1 | inactive |
| CCCCC(=O)OC[C@H]1O[C@@H](n2cnc3c(OCC)ncnc32)[C@H](OC(=O)CCCC)[C@@H]1OC(=O)CCCC | Active |
| CCOc1ncnc2c1ncn2[C@@H]1O[C@H](COP(=O)(N[C@@H](C)C(=O)OC(C)C)Oc2ccccc2)[C@@H](O)[C@H]1O (some centres undefined) | Active |
| OC[C@H]1O[C@@H](n2cnc3c(OCC(F)(F)F)ncnc32)[C@H](O)[C@@H]1O | Active |
| OC[C@H]1O[C@@H](n2cnc3c(OCc4ccccc4)ncnc32)[C@H](O)[C@@H]1O | inactive |
| COc1ncnc2c1ncn2[C@@H]1O[C@H](CCl)[C@@H](O)[C@H]1O | inactive |
| CCOc1ncnc2c1ncn2[C@@H]1O[C@H](COC(=O)[C@@H](N)C(C)C)[C@@H](O)[C@H]1O | Active |
| CN(C)/C=N/c1nc2c(ncn2[C@@H]2O[C@H](CO)[C@@H](O)[C@H]2O)c(=O)[nH]1 | inactive |
| CN(C)/C=N/c1ncnc2c1ncn2[C@H]1C[C@H](O)[C@@H](CO)O1 | inactive |
| CCOc1nc(N)nc2c1ncn2[C@@H]1O[C@H](CO)[C@@H](O)[C@H]1O | inactive |
| CN(C)/C=N/c1ncnc2[nH]cnc12 | inactive |
| CCOc1ncnc2[nH]cnc12 | inactive |
| CCOc1ncnc2c1ncn2[C@H]1C[C@H](O)[C@@H](CO)O1 | inactive |
| OC[C@H]1O[C@@H](n2cnc3c(NCc4ccc(-c5ccccc5)cc4)ncnc32)[C@H](O)[C@@H]1O | Active |
| CCOc1ncnc2c1ncn2[C@@H]1O[C@H](COC(=O)C(C)C)[C@@H](OC(=O)C(C)C)[C@H]1OC(=O)C(C)C | Active |
| CCCCC(=O)OC[C@H]1O[C@@H](n2cnc3c(OCC)ncnc32)[C@H](O)[C@@H]1O | Active |

target: Stimulator of interferon genes protein (Homo sapiens) (UniProt Q86WV6); test: Activation of human STING expressed in monocytes co-expressing IFN assessed as alkaline phosphatase secretion in presence of adenosine deaminase inhibitor erytftro-9-(2-hydroxy-3-nonyl) adenine by SEAP reporter gene assay; assay type: cell-based

| Activity | Structure (SMILES) |
| --- | --- |
| Active | CCOc1ncnc2c1ncn2[C@@H]1O[C@H](CO)[C@@H](O)[C@H]1O |

target: Stimulator of interferon genes protein (Homo sapiens) (UniProt Q86WV6); test: Activation of human STING expressed in monocytes co-expressing IFN assessed as alkaline phosphatase secretion in presence of adenosine kinase inhibitor 5-iodotubercidin by SEAP reporter gene assay; assay type: cell-based

| Activity | Structure (SMILES) |
| --- | --- |
| inactive | CCOc1ncnc2c1ncn2[C@@H]1O[C@H](CO)[C@@H](O)[C@H]1O |
